These are literature values, as cited in patent publication US20100136089A1, “LOCATION OF FATTY ACID ESTERS ON TAMPONS AND TOXIN […]” (priority 2008, published 2010).

Molecules are shown by their SMILES.

The data set has as its system humans. Conditions: stated as known.

As for `CCCCCCCCCCCC(=O)OCC(O)CO` (stereo not shown) [GML, glycerol monolaurate], the toxicity to humans result is “non toxic to humans”.
